Test results reported in US10899710B2, “Pyridines and their use in the treatment of cancer” (The United States of America, as represented by the …, priority 2015, dated 2021).
Where a name gives a salt, the structure may show the parent alone.

Tests used:
DU-145 = assay: Growth inhibition GI50, DU-145; type: cell-based; conditions: Homo sapiens, Prostate Cancer
Experimental: (§1) Cell lines were plated 2000 cells/well in 96-well black optical plates in the presence of 10% FBS media containing 25 nM selenite. The following day cells were treated with various concentrations of the compound of Example 1 (0.1% DMSO final) and incubated for 72 hrs. After the incubation Cell-Quanti Blue reagent was added to each well and incubated for additional 3 hrs. Fluorescence was read ex:530 nm/em:590 nm, and percent of viability was determined using DMSO vehicle and no cell (blank) controls.
(§2) Further results obtained in similar experiments were as indicated below (GI50 refers to concentration of compound yielding 50% growth inhibition; E denotes an exponent to the base 10).

UO-31 = assay: Growth inhibition GI50, UO-31; type: cell-based; conditions: Homo sapiens, Renal Cancer
Experimental: as §1, §2

[1] = mouse, in vivo, iv, 10 mg/kg
Experimental: Fox Chase male severe combined immunodeficiency (SCID, Charles River, #250) mice were inoculated with 1×10^6 FaDu cells in PBS at a pre-shaved region located at the anterior lateral thoracic wall. After 13 days of growth, tumors were caliper measured and treatments were initiated. […] Mouse health status was monitored daily, weight was measured, and tumor volume was recorded from caliper measurements.

CCRF-CEM = assay: Growth inhibition GI50, CCRF-CEM; type: cell-based; conditions: Homo sapiens, Leukemia
Experimental: as §1, §2

LOX IMVI = assay: Growth inhibition GI50, LOX IMVI; type: cell-based; conditions: Homo sapiens, Melanoma
Experimental: as §1, §2

A549/ATCC = assay: Growth inhibition GI50, A549/ATCC; type: cell-based; conditions: Homo sapiens, Non-Small Cell Lung Cancer
Experimental: as §1, §2

NCI-H226 = assay: Growth inhibition GI50, NCI-H226; type: cell-based; conditions: Homo sapiens, Non-Small Cell Lung Cancer
Experimental: as §1, §2

SK-OV-3 = assay: Growth inhibition GI50, SK-OV-3; type: cell-based; conditions: Homo sapiens, Ovarian Cancer
Experimental: as §1, §2

SK-MEL-2 = assay: Growth inhibition GI50, SK-MEL-2; type: cell-based; conditions: Homo sapiens, Melanoma
Experimental: as §1, §2

OVCAR-8 = assay: Growth inhibition GI50, OVCAR-8; type: cell-based; conditions: Homo sapiens, Ovarian Cancer
Experimental: as §1, §2

HL-60(TB) = assay: Growth inhibition GI50, HL-60(TB); type: cell-based; conditions: Homo sapiens, Leukemia
Experimental: as §1, §2

NCI-H460 = assay: Growth inhibition GI50, NCI-H460; type: cell-based; conditions: Homo sapiens, Non-Small Cell Lung Cancer
Experimental: as §1, §2

NCI-H522 = assay: Growth inhibition GI50, NCI-H522; type: cell-based; conditions: Homo sapiens, Non-Small Cell Lung Cancer
Experimental: as §1, §2

HCC-2998 = assay: Growth inhibition GI50, HCC-2998; type: cell-based; conditions: Homo sapiens, Colon Cancer
Experimental: as §1, §2

HCT-116 = assay: Growth inhibition GI50, HCT-116; type: cell-based; conditions: Homo sapiens, Colon Cancer
Experimental: as §1, §2

MCF7 = assay: Growth inhibition GI50, MCF7; type: cell-based; conditions: Homo sapiens, Breast Cancer
Experimental: as §1, §2

SR = assay: Growth inhibition GI50, SR; type: cell-based; conditions: Homo sapiens, Leukemia
Experimental: as §1, §2

HCT-15 = assay: Growth inhibition GI50, HCT-15; type: cell-based; conditions: Homo sapiens, Colon Cancer
Experimental: as §1, §2

HS 578T = assay: Growth inhibition GI50, HS 578T; type: cell-based; conditions: Homo sapiens, Breast Cancer
Experimental: as §1, §2

HT29 = assay: Growth inhibition GI50, HT29; type: cell-based; conditions: Homo sapiens, HT-29, Colon Cancer
Experimental: as §1, §2

T-47D = assay: Growth inhibition GI50, T-47D; type: cell-based; conditions: Homo sapiens, T47D, Breast Cancer
Experimental: as §1, §2

SK-MEL-5 = assay: Growth inhibition GI50, SK-MEL-5; type: cell-based; conditions: Homo sapiens, Melanoma
Experimental: as §1, §2

SK-MEL-28 = assay: Growth inhibition GI50, SK-MEL-28; type: cell-based; conditions: Homo sapiens, Melanoma
Experimental: as §1, §2

FaDu cell line = assay: Cell viability inhibition, FaDu cell line; type: cell-based; conditions: Homo sapiens, Biological Example 4, 72 hrs
Experimental: as §1
Using the assays described in Biological Example 1 to assess inhibition of recombinant TrxR1 and GR, the following IC50 values were obtained for the examples described herein. Further, following the protocol described in Biological Example 2, the following IC50 values were obtained for inhibition of cell viability using the FaDu cell line.

MOLT-4 = assay: Growth inhibition GI50, MOLT-4; type: cell-based; conditions: Homo sapiens, Leukemia
Experimental: as §1, §2

HOP-92 = assay: Growth inhibition GI50, HOP-92; type: cell-based; conditions: Homo sapiens, Non-Small Cell Lung Cancer
Experimental: as §1, §2

SF-295 = assay: Growth inhibition GI50, SF-295; type: cell-based; conditions: Homo sapiens, CNS Cancer
Experimental: as §1, §2

CAKI-1 = assay: Growth inhibition GI50, CAKI-1; type: cell-based; conditions: Homo sapiens, Renal Cancer
Experimental: as §1, §2

MALME-3M = assay: Growth inhibition GI50, MALME-3M; type: cell-based; conditions: Homo sapiens, Melanoma
Experimental: as §1, §2

SW-620 = assay: Growth inhibition GI50, SW-620; type: cell-based; conditions: Homo sapiens, Colon Cancer
Experimental: as §1, §2

NCI-H23 = assay: Growth inhibition GI50, NCI-H23; type: cell-based; conditions: Homo sapiens, Non-Small Cell Lung Cancer
Experimental: as §1, §2

MDA-MB-435 = assay: Growth inhibition GI50, MDA-MB-435; type: cell-based; conditions: Homo sapiens, Melanoma
Experimental: as §1, §2

RPMI-8226 = assay: Growth inhibition GI50, RPMI-8226; type: cell-based; conditions: Homo sapiens, Leukemia
Experimental: as §1, §2

K-562 = assay: Growth inhibition GI50, K-562; type: cell-based; conditions: Homo sapiens, K562, Leukemia
Experimental: as §1, §2

TK-10 = assay: Growth inhibition GI50, TK-10; type: cell-based; conditions: Homo sapiens, Renal Cancer
Experimental: as §1, §2

MDA-MB-468 = assay: Growth inhibition GI50, MDA-MB-468; type: cell-based; conditions: Homo sapiens, Breast Cancer
Experimental: as §1, §2

BT-549 = assay: Growth inhibition GI50, BT-549; type: cell-based; conditions: Homo sapiens, Breast Cancer
Experimental: as §1, §2

SNB-75 = assay: Growth inhibition GI50, SNB-75; type: cell-based; conditions: Homo sapiens, CNS Cancer
Experimental: as §1, §2

RXF 393 = assay: Growth inhibition GI50, RXF 393; type: cell-based; conditions: Homo sapiens, Renal Cancer
Experimental: as §1, §2

UACC-257 = assay: Growth inhibition GI50, UACC-257; type: cell-based; conditions: Homo sapiens, Melanoma
Experimental: as §1, §2

COLO 205 = assay: Growth inhibition GI50, COLO 205; type: cell-based; conditions: Homo sapiens, Colon Cancer
Experimental: as §1, §2

## COc1ccc([N+](=O)[O-])c(S(=O)(=O)c2ccc(Cl)cc2)n1 [Example 1, 2-((4-Chlorophenyl)sulphonyl)-6-methoxy-3-nitropyridine Hydrochloride]
DU-145
  GI50: 9.63 µM
UO-31
  GI50: 2.97 µM
[1]
  Signs of general or systemic toxic effects: no overt signs of general or systemic toxic effects
CCRF-CEM
  GI50: 2.93 µM
LOX IMVI
  GI50: 1.98 µM
A549/ATCC
  GI50: 18.5 µM
NCI-H226
  GI50: 10.2 µM
SK-OV-3
  GI50: 15.1 µM
SK-MEL-2
  GI50: 11.4 µM
OVCAR-8
  GI50: 3.67 µM
HL-60(TB)
  GI50: 6.81 µM
NCI-H460
  GI50: 14.6 µM
NCI-H522
  GI50: 1.86 µM
HCC-2998
  GI50: 8.38 µM
HCT-116
  GI50: 2.9 µM
MCF7
  GI50: 2.24 µM
SR
  GI50: 2.99 µM
HCT-15
  GI50: 2.05 µM
HS 578T
  GI50: 13 µM
HT29
  GI50: 3.34 µM
T-47D
  GI50: 2.12 µM
SK-MEL-5
  GI50: 12 µM
SK-MEL-28
  GI50: 3.57 µM
FaDu cell line
  IC50: 2.99 µM
MOLT-4
  GI50: 3.59 µM
HOP-92
  GI50: 2 µM
SF-295
  GI50: 13.1 µM
CAKI-1
  GI50: 1.61 µM
MALME-3M
  GI50: 2 µM
SW-620
  GI50: 2.06 µM
NCI-H23
  GI50: 4.58 µM
MDA-MB-435
  GI50: 1.75 µM
RPMI-8226
  GI50: 3.38 µM
K-562
  GI50: 3.02 µM
TK-10
  GI50: 3.57 µM
MDA-MB-468
  GI50: 1.93 µM
BT-549
  GI50: 2.75 µM
SNB-75
  GI50: 11 µM
RXF 393
  GI50: 4.45 µM
UACC-257
  GI50: 11.3 µM
COLO 205
  GI50: 1.96 µM
